Values quoted from earlier work in patent US20240226372A1, “HYDROPHILIC POLY(THIOKETAL) URETHANE SCAFFOLDS AND METHODS OF USE THEREOF” (Vanderbilt University, priority 2021, published 2024).

Tested on: osteoblasts
Parameters: dose or concentration left out as unconfirmed
Details: 21 antibiotics

## CN[C@H](CC(C)C)C(=O)N[C@H]1C(=O)N[C@@H](CC(N)=O)C(=O)N[C@H]2C(=O)N[C@H]3C(=O)N[C@H](C(=O)N[C@H](C(=O)O)c4cc(O)cc(O)c4-c4cc3ccc4O)[C@H](O)c3ccc(c(Cl)c3)Oc3cc2cc(c3O[C@@H]2O[C@H](CO)[C@@H](O)[C@H](O)[C@H]2O[C@H]2C[C@](C)(N)[C@H](O)[C@H](C)O2)Oc2ccc(cc2Cl)[C@H]1O [vancomycin]
  effects on osteoblast function: least detrimental effects
